Source: US20070049559A1, “Preparations comprising arylazine substituted with a carbonylic moiety to increase the activity of Gelatinase A in ocular cells” (priority 2005, published 2007)

Tested on: MT-MMP
Assay: Thiopeptolide assay of cell-associated gelatinase activity ascribed to MT-MMP in TM cells
Assay type: cell-based, Rhesus monkey
Settings: benzathine (as diacetate salt) combined with an equal weight of test compound in the incubation medium
Protocol: Unless specifically noted, all molecules tested were prepared as stock solutions in dimethyl sulfoxide (DMSO) with a final concentration of 10 mg/ml. The stocks were stored in a dessicator at −20 degrees Celsius. In testing the molecules, the molecules were diluted to final concentrations of 0.3 ug/ml and 15 ug/ml in a simplified culture medium based on Ames' medium, called Concanavalin A (Con A) conditioning medium (CACM). The monkey TM cells were incubated with the test molecules for 48 hours.
Control medium of CACM plus DMSO and a positive control with 5 ug/ml Con A plus DMSO were run in parallel. […]
At the end of the incubation period, by means of a spectrophoto-metric plate reader, the optical density (OD) at 410 nm was determined for each well after automatic subtraction of a blank value for a well containing reaction mixture but without cells. The average OD at the two-hour end point for each test molecule at all concentrations in triplicate was calculated. […] As an alternate to the end point OD reading, one may use the mean rate of appearance of the reaction product (mean V), calculated from the best linear fit of the data to absorbance vs. time. […]

## O=C(O)c1cc(O)c2ccccc2n1 [Kynurenic Acid, kynurenic acid]
  MT-MMP activity in combination with benzathine: evince MT-MMP activity
